Values joined by “and” are separate entries in the source; they are usually repeats but may differ in a detail not shown here. Identical values can stand only once. ± gives the expanded uncertainty stated by the source.
Assay: Henry's Law constant (molality scale); of the first substance listed, at infinite dilution; xn = mol fraction of the nth substance listed
Details: Liquid, Chromatography, x1 = 0

Row | Compound | Henry's Law constant (274.15 K) | Henry's Law constant (294.65 K) | Henry's Law constant (296.15 K) | Henry's Law constant (310.15 K) | Henry's Law constant (320.15 K) | Henry's Law constant (331.15 K) | Henry's Law constant (333.15 K) | Henry's Law constant (313.15 K) | Henry's Law constant (326.15 K) | Henry's Law constant (273.25 K) | Henry's Law constant (298.15 K) | Henry's Law constant (311.15 K) | Henry's Law constant (332.15 K)
1 | CC#N [acetonitrile] + O | 0.21 ± 0.084 kPa·kg/mol | 1.41 kPa·kg/mol and 1.55 kPa·kg/mol | 1.7 ± 0.68 kPa·kg/mol | 5.36 ± 2.1 kPa·kg/mol | 12.6 ± 5.1 kPa·kg/mol | 6.17 kPa·kg/mol | – | – | – | – | – | – | –
2 | CC(=O)c1ccccc1 [acetophenone] + O | 0.128 ± 0.039 kPa·kg/mol | 0.881 kPa·kg/mol and 0.738 kPa·kg/mol | 1.6 ± 0.48 kPa·kg/mol | 2.48 ± 0.75 kPa·kg/mol | 4.6 ± 1.4 kPa·kg/mol | 8.87 ± 2.7 kPa·kg/mol | – | – | – | – | – | – | –
3 | C=CC#N [acrylonitrile] + O | 1.24 ± 0.37 kPa·kg/mol | 5.23 kPa·kg/mol and 8.07 kPa·kg/mol | 9.19 ± 2.8 kPa·kg/mol | 25.3 ± 7.6 kPa·kg/mol | 40 ± 12 kPa·kg/mol | 73.9 ± 22 kPa·kg/mol | 97.8 ± 29 kPa·kg/mol | – | – | – | – | – | –
4 | Brc1ccccc1 [bromobenzene] + O | 56.1 ± 17 kPa·kg/mol | 138 kPa·kg/mol and 147 kPa·kg/mol | 161 ± 48 kPa·kg/mol | 273 ± 82 kPa·kg/mol | 470 ± 140 kPa·kg/mol | 708 ± 210 kPa·kg/mol | – | – | – | – | – | – | –
5 | ClCBr [bromochloromethane] + O | 50.8 ± 15 kPa·kg/mol | 121 kPa·kg/mol and 123 kPa·kg/mol | 126 ± 38 kPa·kg/mol | 259 ± 78 kPa·kg/mol | 479 ± 140 kPa·kg/mol | 795 ± 240 kPa·kg/mol | – | – | – | – | – | – | –
6 | ClC(Cl)Br [bromodichloromethane] + O | 60.5 ± 18 kPa·kg/mol | 165 kPa·kg/mol and 162 kPa·kg/mol | 172 ± 51 kPa·kg/mol | 347 ± 100 kPa·kg/mol | – | 973 ± 290 kPa·kg/mol | – | – | – | – | – | – | –
7 | CBr [bromomethane] + O | 399 ± 120 kPa·kg/mol | – | – | – | – | – | – | 1120 ± 340 kPa·kg/mol | 1920 ± 580 kPa·kg/mol | – | – | – | –
8 | CCC(C)=O [butanone] + O | 0.416 ± 0.12 kPa·kg/mol | 1.72 kPa·kg/mol and 2.37 kPa·kg/mol | 2.62 ± 0.79 kPa·kg/mol | 8.13 ± 2.4 kPa·kg/mol | 15.3 ± 4.6 kPa·kg/mol | 43.9 ± 13 kPa·kg/mol | 62 ± 19 kPa·kg/mol | – | – | – | – | – | –
9 | CCCCc1ccccc1 [butylbenzene] + O | 174 kPa·kg/mol | – | 458 kPa·kg/mol | 481 kPa·kg/mol | – | 1280 kPa·kg/mol | – | 2290 kPa·kg/mol | 3470 kPa·kg/mol | – | – | – | –
10 | S=C=S [carbon disulfide] + O | 682 ± 200 kPa·kg/mol | – | – | – | – | – | – | 2930 ± 880 kPa·kg/mol | 5690 ± 1700 kPa·kg/mol | – | – | – | –
11 | CCCl [chloroethane] + O | 522 ± 160 kPa·kg/mol | – | – | – | – | – | – | 1950 ± 580 kPa·kg/mol | 2940 ± 880 kPa·kg/mol | – | – | – | –
12 | C=CCl [chloroethene] + O | 1140 ± 340 kPa·kg/mol | – | – | – | – | – | – | 4200 ± 1300 kPa·kg/mol | 6500 ± 1900 kPa·kg/mol | – | – | – | –
13 | ClC/C=C\CCl [cis-1,4-dichloro-2-butene] + O | 3.03 kPa·kg/mol | – | 31.9 kPa·kg/mol | 102 kPa·kg/mol | 182 kPa·kg/mol | 492 kPa·kg/mol | – | – | 1380 kPa·kg/mol | – | – | – | –
14 | C1CCCCC1 [cyclohexane] + O | 1010 ± 300 kPa·kg/mol | 2250 kPa·kg/mol | 2250 ± 670 kPa·kg/mol | – | – | – | – | 9460 ± 2800 kPa·kg/mol | 15700 ± 4700 kPa·kg/mol | – | – | – | –
15 | BrCBr [dibromomethane] + O | 24 ± 7.2 kPa·kg/mol | 67.5 kPa·kg/mol and 64.7 kPa·kg/mol | 72.9 ± 22 kPa·kg/mol | 154 ± 46 kPa·kg/mol | 278 ± 83 kPa·kg/mol | 444 ± 130 kPa·kg/mol | – | – | – | – | – | – | –
16 | FC(F)(Cl)Cl [dichlorodifluoromethane] + O | 1660 ± 500 kPa·kg/mol | – | – | – | – | – | – | 40000 ± 12000 kPa·kg/mol | 22600 ± 6800 kPa·kg/mol | – | – | – | –
17 | ClCCl [dichloromethane] + O | 85.1 ± 26 kPa·kg/mol | 222 kPa·kg/mol and 214 kPa·kg/mol | 250 ± 75 kPa·kg/mol | – | – | – | – | 523 ± 160 kPa·kg/mol | 686 ± 210 kPa·kg/mol | – | – | – | –

Row | Compound | Henry's Law constant (274.15 K) | Henry's Law constant (294.65 K) | Henry's Law constant (296.15 K) | Henry's Law constant (310.15 K) | Henry's Law constant (320.15 K) | Henry's Law constant (331.15 K) | Henry's Law constant (333.15 K) | Henry's Law constant (313.15 K) | Henry's Law constant (326.15 K) | Henry's Law constant (273.25 K) | Henry's Law constant (298.15 K) | Henry's Law constant (311.15 K) | Henry's Law constant (332.15 K)
18 | CCOCC [diethyl ether] + O | 16 ± 5 kPa·kg/mol | 68 kPa·kg/mol and 70 kPa·kg/mol | 77 ± 23 kPa·kg/mol | 206 ± 62 kPa·kg/mol | 427 ± 130 kPa·kg/mol | 803 ± 240 kPa·kg/mol | – | – | – | – | – | – | –
19 | CI [iodomethane] + O | 251 ± 75 kPa·kg/mol | – | – | – | – | – | – | 814 ± 240 kPa·kg/mol | 1560 ± 470 kPa·kg/mol | – | – | – | –
20 | C=C(C)C#N [isopropenylnitrile] + O | 2.92 ± 1.2 kPa·kg/mol | 14.7 kPa·kg/mol and 16.8 kPa·kg/mol | 16.7 ± 6.7 kPa·kg/mol | 50.9 ± 20 kPa·kg/mol | 68.5 ± 27 kPa·kg/mol | 147 ± 59 kPa·kg/mol | 261 ± 100 kPa·kg/mol | – | – | – | – | – | –
21 | COC(C)=O [methyl ethanoate] + O | 1.06 ± 0.42 kPa·kg/mol | 5.33 kPa·kg/mol and 7.39 kPa·kg/mol | 7.53 ± 3 kPa·kg/mol | 34.1 ± 14 kPa·kg/mol | 52.4 ± 21 kPa·kg/mol | 83.1 ± 33 kPa·kg/mol | 125 ± 50 kPa·kg/mol | – | – | – | – | – | –
22 | C=C(C)C(=O)OC [methyl methacrylate] + O | 2.57 ± 0.77 kPa·kg/mol | 24.2 kPa·kg/mol and 12.7 kPa·kg/mol | 24.5 ± 7.4 kPa·kg/mol | 85.1 ± 26 kPa·kg/mol | 132 ± 40 kPa·kg/mol | 250 ± 75 kPa·kg/mol | – | – | – | – | – | – | –
23 | c1ccc2ccccc2c1 [naphthalene] + O | 5 ± 1.5 kPa·kg/mol | 31.7 kPa·kg/mol and 17.8 kPa·kg/mol | 34.7 ± 10 kPa·kg/mol | 90.2 ± 27 kPa·kg/mol | 116 ± 35 kPa·kg/mol | 196 ± 59 kPa·kg/mol | 278 ± 83 kPa·kg/mol | – | – | – | – | – | –
24 | O=[N+]([O-])c1ccccc1 [nitrobenzene] + O | 0.175 ± 0.053 kPa·kg/mol | 1.06 kPa·kg/mol and 1.11 kPa·kg/mol | 2.58 ± 0.78 kPa·kg/mol | 4.13 ± 1.2 kPa·kg/mol | 8.57 ± 2.6 kPa·kg/mol | 17.6 ± 5.3 kPa·kg/mol | – | – | – | – | – | – | –
25 | ClC(Cl)C(Cl)(Cl)Cl [pentachloroethane] + O | 43.4 ± 17 kPa·kg/mol | 133 kPa·kg/mol and 141 kPa·kg/mol | 163 ± 65 kPa·kg/mol | 268 ± 110 kPa·kg/mol | 505 ± 200 kPa·kg/mol | 989 ± 400 kPa·kg/mol | – | 471 ± 190 kPa·kg/mol | 1070 ± 430 kPa·kg/mol | – | – | – | –
26 | CC(C)O [propan-2-ol] + O | – | – | – | – | – | – | – | – | – | 0.088 kPa·kg/mol | 2.14 kPa·kg/mol | 1.19 kPa·kg/mol | 22.9 kPa·kg/mol
27 | CCC#N [propanenitrile] + O | 0.302 ± 0.091 kPa·kg/mol | 2.3 kPa·kg/mol and 2.2 kPa·kg/mol | 2.78 ± 0.83 kPa·kg/mol | 5.36 ± 1.6 kPa·kg/mol | 11 ± 3.3 kPa·kg/mol | 14 ± 4.2 kPa·kg/mol | – | – | – | – | – | – | –
28 | CCCc1ccccc1 [propylbenzene] + O | 182 kPa·kg/mol | – | 505 kPa·kg/mol | 412 kPa·kg/mol | – | 1920 kPa·kg/mol | – | 1900 kPa·kg/mol | 3160 kPa·kg/mol | – | – | – | –
29 | ClC(Cl)(Cl)Cl [tetrachloromethane] + O | 696 ± 210 kPa·kg/mol | 1770 kPa·kg/mol and 1580 kPa·kg/mol | 1690 ± 510 kPa·kg/mol | – | – | – | – | 4230 ± 1300 kPa·kg/mol | 7590 ± 2300 kPa·kg/mol | – | – | – | –
30 | ClC/C=C/CCl [trans-1,4-dichloro-2-butene] + O | 3.9 ± 1.6 kPa·kg/mol | 28.2 kPa·kg/mol and 17.7 kPa·kg/mol | 31.6 ± 13 kPa·kg/mol | 96.4 ± 39 kPa·kg/mol | 175 ± 70 kPa·kg/mol | 155 ± 62 kPa·kg/mol | – | – | – | – | – | – | –
31 | BrC(Br)Br [tribromomethane] + O | 7.47 ± 2.2 kPa·kg/mol | 46.4 kPa·kg/mol and 29.9 kPa·kg/mol | 50.9 ± 15 kPa·kg/mol | 120 ± 36 kPa·kg/mol | 200 ± 60 kPa·kg/mol | 328 ± 98 kPa·kg/mol | – | – | – | – | – | – | –
32 | ClC=C(Cl)Cl [trichloroethene] + O | 249 ± 75 kPa·kg/mol | 711 kPa·kg/mol and 721 kPa·kg/mol | 691 ± 210 kPa·kg/mol | 2110 ± 630 kPa·kg/mol | – | 4620 ± 1400 kPa·kg/mol | – | 1670 ± 500 kPa·kg/mol | 2630 ± 790 kPa·kg/mol | – | – | – | –
33 | FC(Cl)(Cl)Cl [trichlorofluoromethane] + O | 987 ± 300 kPa·kg/mol | – | – | – | – | – | – | 8110 ± 2400 kPa·kg/mol | 15600 ± 4700 kPa·kg/mol | – | – | – | –
34 | ClC(Cl)Cl [trichloromethane] + O | 107 ± 32 kPa·kg/mol | 301 kPa·kg/mol and 324 kPa·kg/mol | 363 ± 110 kPa·kg/mol | 782 ± 230 kPa·kg/mol | – | 1770 ± 530 kPa·kg/mol | – | 628 ± 190 kPa·kg/mol | 1170 ± 350 kPa·kg/mol | – | – | – | –

— the NIST ThermoML archive (doi:10.1021/je3010535)
